Assay results published in ChEMBL document CHEMBL1201862, “PubChem BioAssay data set” (2004).
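Cells were grown in 96-well plates and exposed to each compound for 48 hours at five concentrations; endpoints were interpolated linearly between bracketing concentrations, or set to the highest concentration if not reached. GI50: concentration for 50% inhibition of growth.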 The source made the active and inactive calls. Rule as the data show it: active = GI50 up to about 1.1 µM and inactive = higher.

Experiments:
Assay in all cases: DTP human tumour cell line panel, 48 h
BT-549 = system: BT-549
786-0 = system: 786-0
SF-295 = system: SF-295
SW-620 = system: SW-620
Hs-578T = system: Hs-578T
LOX IMVI = system: LOX IMVI
SK-MEL-28 = system: SK-MEL-28
UACC-62 = system: UACC-62
TK-10 = system: TK-10
SK-MEL-5 = system: SK-MEL-5
NCI-H522 = system: NCI-H522
NCI-H460 = system: NCI-H460
A549 = system: A549
RXF 393 = system: RXF 393
NCI-H23 = system: NCI-H23
ACHN = system: ACHN
PC-3 = system: PC-3
HT-29 = system: HT-29
EKVX = system: EKVX
KM12 = system: KM12

SMILES	GI50 (BT-549)	GI50 (786-0)	GI50 (SF-295)	GI50 (SW-620)	GI50 (Hs-578T)	GI50 (LOX IMVI)	GI50 (SK-MEL-28)	GI50 (UACC-62)	GI50 (TK-10)	GI50 (SK-MEL-5)	GI50 (NCI-H522)	GI50 (NCI-H460)	GI50 (A549)	GI50 (RXF 393)	GI50 (NCI-H23)	GI50 (ACHN)	GI50 (PC-3)	GI50 (HT-29)	GI50 (EKVX)	GI50 (KM12)
CC(=O)OCOC(=O)CN(CC(=O)OCOC(C)=O)Cc1cc2c(cc1OC(C)=O)Oc1cc(OC(C)=O)c(CN(CC(=O)OCOC(C)=O)CC(=O)OCOC(C)=O)cc1C21OC(=O)c2ccccc21	0.265 µM (active)	0.346 µM (active)	1.59 µM (inactive)	0.759 µM (active)	0.345 µM (active)	0.299 µM (active)	0.484 µM (active)	0.232 µM (active)	0.741 µM (active)	0.953 µM (active)	0.237 µM (active)	0.366 µM (active)	0.953 µM (active)	0.34 µM (active)	0.481 µM (active)	1.38 µM (inactive)	1.42 µM (inactive)	0.483 µM (active)	2.52 µM (inactive)	
C=CCCC(On1c(-c2ccc(Cl)cc2)csc1=S)c1ccccc1 (configuration not stated)	58.3 µM (inactive)	32.6 µM (inactive)	13.9 µM (inactive)	8.73 µM (inactive)	34.4 µM (inactive)	33.6 µM (inactive)	85.3 µM (inactive)	36.7 µM (inactive)	83.4 µM (inactive)	14.9 µM (inactive)	12.4 µM (inactive)		31.2 µM (inactive)	29.7 µM (inactive)	39.4 µM (inactive)	83.6 µM (inactive)	27.3 µM (inactive)	7.59 µM (inactive)	19.9 µM (inactive)	26.5 µM (inactive)
c1ccc2c(c1)Nc1cccc3c1c-2nc1cc2ccccc2cc13	12.4 µM (inactive)	1.72 µM (inactive)	1.6 µM (inactive)	1.53 µM (inactive)	2.24 µM (inactive)	1.55 µM (inactive)	1.74 µM (inactive)	2.12 µM (inactive)	1.87 µM (inactive)	1.7 µM (inactive)	1.98 µM (inactive)	1.65 µM (inactive)	1.8 µM (inactive)	1.57 µM (inactive)	1.32 µM (inactive)	1.53 µM (inactive)	1.53 µM (inactive)	1.72 µM (inactive)	1.55 µM (inactive)	1.62 µM (inactive)
N#Cc1c(-c2ccc([N+](=O)[O-])cc2)c(C#N)c(=O)n(NS(=O)(=O)c2ccccc2)c1-c1ccccc1	> 100 µM (inactive)	> 100 µM (inactive)	> 100 µM (inactive)	> 100 µM (inactive)	> 100 µM (inactive)	> 100 µM (inactive)	> 100 µM (inactive)	> 100 µM (inactive)	> 100 µM (inactive)	> 100 µM (inactive)	> 100 µM (inactive)	> 100 µM (inactive)	> 100 µM (inactive)	> 100 µM (inactive)		> 100 µM (inactive)	> 100 µM (inactive)	> 100 µM (inactive)	> 100 µM (inactive)	> 100 µM (inactive)
NC(=S)Nc1c(S(N)(=O)=O)cc(S(N)(=O)=O)c(Cl)c1Cl	> 100 µM (inactive)	> 100 µM (inactive)	> 100 µM (inactive)	> 100 µM (inactive)	> 100 µM (inactive)	> 100 µM (inactive)	> 100 µM (inactive)	> 100 µM (inactive)	> 100 µM (inactive)	> 100 µM (inactive)	> 100 µM (inactive)		> 100 µM (inactive)	> 100 µM (inactive)	> 100 µM (inactive)		> 100 µM (inactive)	> 100 µM (inactive)	> 100 µM (inactive)	> 100 µM (inactive)
COc1ccc(-c2cc(C3CC3)nc(SCC(=O)O)c2C#N)cc1	> 100 µM (inactive)	> 100 µM (inactive)	60.3 µM (inactive)	> 100 µM (inactive)	84.3 µM (inactive)	36.6 µM (inactive)	> 100 µM (inactive)	> 100 µM (inactive)	> 100 µM (inactive)	> 100 µM (inactive)	25.1 µM (inactive)	52.1 µM (inactive)	44 µM (inactive)	62.8 µM (inactive)	> 100 µM (inactive)	> 100 µM (inactive)	79.8 µM (inactive)	> 100 µM (inactive)	> 100 µM (inactive)	> 100 µM (inactive)
CCOC(=O)c1nc2cc(C(F)(F)F)ccc2nc1Nc1ccc(C(=O)NC(C(=O)OCC)C(=O)OCC)cc1	23.6 µM (inactive)	14.3 µM (inactive)	15.5 µM (inactive)	40.8 µM (inactive)	12.4 µM (inactive)	54.2 µM (inactive)	14.1 µM (inactive)	11.5 µM (inactive)	24.7 µM (inactive)	20.5 µM (inactive)	18.7 µM (inactive)	73.6 µM (inactive)		13.6 µM (inactive)	35.5 µM (inactive)	23.3 µM (inactive)	22.9 µM (inactive)	25.1 µM (inactive)	26.2 µM (inactive)	27.5 µM (inactive)
COc1ccc(/C=N/Nc2nc(=S)[nH]c3[nH]ncc23)cc1	> 100 µM (inactive)	43.4 µM (inactive)	40.6 µM (inactive)	> 100 µM (inactive)	> 100 µM (inactive)	33.8 µM (inactive)	35.2 µM (inactive)	31 µM (inactive)	33.1 µM (inactive)	30 µM (inactive)	26.2 µM (inactive)	79.8 µM (inactive)	54.3 µM (inactive)	> 100 µM (inactive)	27.5 µM (inactive)	43.3 µM (inactive)	52.2 µM (inactive)	48.5 µM (inactive)	59.4 µM (inactive)	49.9 µM (inactive)
CCNCCNc1c2ccccc2nc2ccccc12	2.84 µM (inactive)	0.791 µM (active)	1.21 µM (inactive)	0.147 µM (active)	1.98 µM (inactive)	0.743 µM (active)		1.49 µM (inactive)	2.91 µM (inactive)	1.66 µM (inactive)	1.04 µM (active)	0.453 µM (active)	1.56 µM (inactive)	1.23 µM (inactive)	1.26 µM (inactive)	0.366 µM (active)	0.828 µM (active)	0.427 µM (active)	2.44 µM (inactive)	1.58 µM (inactive)
C=C1CC[C@@H]2C13[C@@H]1[C@H](CC(=O)[C@@]23C)C1(C)C (some centres not stated)	> 100 µM (inactive)	55.1 µM (inactive)	82 µM (inactive)	51.4 µM (inactive)	> 100 µM (inactive)	> 100 µM (inactive)	> 100 µM (inactive)	> 100 µM (inactive)	33.7 µM (inactive)	> 100 µM (inactive)	> 100 µM (inactive)	> 100 µM (inactive)	26.4 µM (inactive)	43.6 µM (inactive)	> 100 µM (inactive)	> 100 µM (inactive)	> 100 µM (inactive)	> 100 µM (inactive)		> 100 µM (inactive)
